Laboratory results taken from patent US20150352108A1, “AMINO-PYRIMIDINE COMPOUNDS AS INHIBITORS OF TBK1 AND/OR IKK EPSILON” (Alzheimer's Institute of America, priority 2009, published 2015).
Where two headings read alike, the source gives them in different places.

Experiments:
IKKε = target: T1, IKKε (Homo sapiens, UniProt Q14164); test: In-vitro IKKε kinase assay ([γ33]ATP filter-plate); type: biochemical
T1 construct: His-tag; made in house; host or cells: Sf9 insect cells
T1 sequence (Q14164 1-716): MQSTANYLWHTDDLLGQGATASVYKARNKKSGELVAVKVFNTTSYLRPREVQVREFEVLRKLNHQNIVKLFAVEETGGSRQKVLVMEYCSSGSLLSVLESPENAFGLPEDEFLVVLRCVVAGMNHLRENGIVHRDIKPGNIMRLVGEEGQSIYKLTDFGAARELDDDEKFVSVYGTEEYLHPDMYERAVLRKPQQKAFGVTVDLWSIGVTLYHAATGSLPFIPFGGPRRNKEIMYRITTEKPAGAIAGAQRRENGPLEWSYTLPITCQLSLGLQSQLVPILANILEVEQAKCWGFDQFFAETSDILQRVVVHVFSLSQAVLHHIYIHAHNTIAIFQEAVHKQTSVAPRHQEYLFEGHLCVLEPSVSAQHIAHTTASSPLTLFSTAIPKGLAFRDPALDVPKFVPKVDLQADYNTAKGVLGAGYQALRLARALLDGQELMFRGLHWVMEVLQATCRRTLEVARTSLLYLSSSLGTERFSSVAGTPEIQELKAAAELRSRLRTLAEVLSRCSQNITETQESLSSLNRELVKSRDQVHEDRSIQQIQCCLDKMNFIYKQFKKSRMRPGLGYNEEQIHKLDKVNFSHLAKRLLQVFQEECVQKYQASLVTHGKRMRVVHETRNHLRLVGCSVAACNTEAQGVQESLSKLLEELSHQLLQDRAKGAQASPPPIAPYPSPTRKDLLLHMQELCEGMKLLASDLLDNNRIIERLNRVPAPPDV
Method in brief: (§1)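 His-tagged IKKε and TBK1 from Sf9 cells were assayed with myelin basic protein or casein and [γ33]ATP at 2×Km ATP (32 μM for IKKε, 60 μM for TBK1). Enzyme was 0.1 or 0.015 μg/ml for IKKε and 0.1 or 0.02 μg/ml for TBK1 (normal/sensitized). Reactions ran 30-45 min, were filter-captured, scintillation-counted, and normalized to DMSO after background subtraction.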

TBK1 = target: T2, TBK1 (Homo sapiens, UniProt Q9UHD2); test: In-vitro TBK1 kinase assay ([γ33]ATP filter-plate); type: biochemical
T2 construct: His-tag; made in house; host or cells: Sf9 insect cells
T2 sequence (Q9UHD2 1-729): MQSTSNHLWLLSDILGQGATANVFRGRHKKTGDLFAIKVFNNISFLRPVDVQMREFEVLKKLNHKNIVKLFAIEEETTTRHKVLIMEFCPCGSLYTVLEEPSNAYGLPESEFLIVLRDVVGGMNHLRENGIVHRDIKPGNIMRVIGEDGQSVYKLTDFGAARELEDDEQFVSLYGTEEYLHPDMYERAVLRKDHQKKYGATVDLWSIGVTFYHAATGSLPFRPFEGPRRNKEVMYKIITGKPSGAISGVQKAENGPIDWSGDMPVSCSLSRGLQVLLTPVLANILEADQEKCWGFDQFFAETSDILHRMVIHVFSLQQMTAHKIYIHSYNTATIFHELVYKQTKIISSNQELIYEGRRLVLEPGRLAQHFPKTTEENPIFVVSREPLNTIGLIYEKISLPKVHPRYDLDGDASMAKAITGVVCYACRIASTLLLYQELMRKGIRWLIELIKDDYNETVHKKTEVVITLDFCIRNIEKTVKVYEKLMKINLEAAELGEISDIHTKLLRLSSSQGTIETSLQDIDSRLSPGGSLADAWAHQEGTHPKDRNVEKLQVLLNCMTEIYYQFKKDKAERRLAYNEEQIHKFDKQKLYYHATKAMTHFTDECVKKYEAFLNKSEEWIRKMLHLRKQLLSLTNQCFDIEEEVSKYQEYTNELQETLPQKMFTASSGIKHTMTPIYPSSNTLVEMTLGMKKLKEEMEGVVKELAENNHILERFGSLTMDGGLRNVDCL
Method in brief: as §1

[1] = tested on: IKKε-mediated phosphorylation of IRF3; test: In-situ phosphorylation of IRF3 (pIRF3 Ser396 ELISA) in HEK293T cells cotransfected with IRF3 and IKKε; type: cell-based; conditions: Homo sapiens, HEK-293T
Method in brief: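 For the IRF3 ELISA, HEK293T cells cotransfected with IRF3 and IKKε were replated at 20,000/well and treated 20 h. Phospho-Ser396 IRF3 was measured by ELISA and normalised to DMSO, with viability checked by CellTiter-Glo. For IRF7, cells transfected with IRF7 and TBK1 were treated overnight, and pSer477/Ser479 IRF7 was detected by Western blot.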

[2] = tested on: secreted RANTES, prostate cancer DU145 cells; test: ELISA to detect secreted RANTES, DU145 cells; type: cell-based; conditions: Homo sapiens, DU-145; cell system (DU145 or Poly(I:C)-induced MALME-3) not specified; read-out: IC50 for inhibition of the secretion of RANTES
Description: Prostate cancer DU145 cells were seeded at 20,000 cells/well in a 96-well tissue culture plate. The following day media was removed and replaced with complete media containing IKKε/TBK1 inhibitor (starting concentration 25 µM, 1:3 dilutions, final DMSO 0.05%). Cells were incubated for 20 hours and culture supernatant used to determine secreted RANTES levels using a commercially available ELISA kit (R & D Systems, Minneapolis, Minn.).

[3] = text bins, read-out: IC50 for inhibition of the kinase activity of IKKε
[4] = text bins, read-out: IC50 for inhibition of the kinase activity of TBK1
[5] = HEK293T cells, 20 hours, text bins, read-out: IC50 for inhibition of the in-situ IKKε-mediated phosphorylation of IRF3
[6] = HEK293T cells in culture, Table 3, read-out: pIRF3 ELISA IC50

| IC50 (IKKε; [3]) [nM] | IC50 (TBK1; [4]) [nM] | IC50 [1, 5] [nM] | IC50 [2] [nM] | IC50 (IKKε; Table 3, read-out: IKKε IC50) [nM] | IC50 (TBK1; Table 3, read-out: TBK1 IC50) [nM] | IC50 [1, 6] [nM] | SMILES |
| --- | --- | --- | --- | --- | --- | --- | --- |
| < 5 | < 10 | < 100 | < 10 | – | – | – | COc1cc(-c2ccnc(Nc3ccc(N4CCN(CCO)CC4)cc3)n2)cc(C#N)c1OC1CCOCC1 [compound 446, 5-[2-({4-[4-(2-Hydroxyethyl)piperazin-1-yl]phenyl}amino)pyrimidin-4-yl]-3-methoxy-2-(tetrahydro-2H-pyran-4-yloxy)benzonitrile] |
| < 5 | < 10 | < 100 | < 10 | – | – | – | COc1cc(Nc2nccc(-c3ccc(OC4CCOCC4)c(C#N)c3)n2)ccc1C(=O)N(C)CCN(C)C [compound 505, 4-({4-[3-cyano-4-(tetrahydro-2H-pyran-4-yloxy)phenyl]pyrimidin-2-yl}amino)-N-[2-(dimethylamino)ethyl]-2-mrthoxy-N-methylbenzamide] |
| < 5 | < 10 | – | – | 3 | 1.3 | 1100 | N#Cc1cc(-c2ccnc(Nc3cccc(CS(=O)(=O)NCCO)c3)n2)ccc1NC(=O)C1CC1 [compound 627, N-(2-Cyano-4-{2-[(3-{[(2-hydroxyethyl)sulfamoyl]methyl}phenyl)amino]pyrimidin-4-yl}phenyl) cyclopropane-carboxamide] |
| < 5 | < 10 | < 100 | – | 0.5 | 0.4 | 22.8 | COCCOC1CN(C(=O)c2ccc(Nc3nccc(-c4ccc(OC5CCOCC5)c(C#N)c4)n3)cc2OC)C1 [compound 632, 5-{2-[(3-Methoxy-4-{[3-(2-methoxyethoxy)azetidin-1-yl]carbonyl}phenyl)amino]pyrimidin-4-yl}-2-(tetrahydro-2H-pyran-4-yloxy)benzonitrile] |
| < 5 | < 10 | < 100 | – | 0.7 | 1.3 | 30.9 | N#Cc1cc(-c2ccnc(Nc3cccc(NC(=O)N4CCOCC4)c3)n2)ccc1OC1CCOCC1 [compound 646, N-[3-({4-[3-Cyano-4-(tetrahydro-2H-pyran-4-yloxy)phenyl]pyrimidin-2-yl}amino)phenyl] morpholine-4-carboxamide] |
| < 5 | < 10 | < 100 | – | – | – | – | CC(C)N1CCN(CCOc2cc(Nc3nccc(-c4ccc(OC5CCOCC5)c(C#N)c4)n3)ccc2F)CC1 [compound 650, 5-{2-[(4-Fluoro-3-{2-[4-(propan-2-yl)piperazin-1-yl]ethoxy}phenyl)amino]pyrimidin-4-yl}-2-(tetrahydro-2H-pyran-4-yloxy)benzonitrile] |
| < 5 | < 10 | < 100 | – | – | – | – | COCCNCc1ccc(Nc2nccc(-c3ccc(OCC(C)C)c(C#N)c3)n2)cc1 [compound 651] |

Further lines, the compound ahead of its results:

| SMILES | IC50 (IKKε; [3]) [nM] | IC50 (TBK1; [4]) [nM] | IC50 [1, 5] [nM] | IC50 [2] [nM] | IC50 (IKKε; Table 3, read-out: IKKε IC50) [nM] | IC50 (TBK1; Table 3, read-out: TBK1 IC50) [nM] | IC50 [1, 6] [nM] |
| --- | --- | --- | --- | --- | --- | --- | --- |
| CC(=O)NCc1ccc(Nc2nccc(-c3ccc(OC4CCOCC4)c(C#N)c3)n2)cc1 [compound 492, N-[4-({4-[3-cyano-4-(tetrahydro-2H-pyran-4-yloxy)phenyl]pyrimidin-2-yl}amino)benzyl] acetamide] | < 5 | < 10 | < 100 | < 10 | – | – | – |
| N#Cc1cc(-c2ccnc(Nc3cccc(CS(=O)(=O)NCCO)c3)n2)ccc1OC1CCOCC1 [compound 619, 1-[3-({4-[3-Cyano-4-(tetrahydro-2H-pyran-4-yloxy)phenyl]pyrimidin-2-yl}amino)phenyl]-N-(2-hydroxyethyl) methanesulfonamide] | < 5 | < 10 | 250 to 500 | – | 1.2 | 0.2 | 287 |
| N#Cc1cc(-c2ccnc(Nc3cccc(N4CCN(CCO)CC4)c3)n2)ccc1OC1CCOCC1 [compound 620, 5-[2-({3-[4-(2-Hydroxyethyl)piperazin-1-yl]phenyl}amino)pyrimidin-4-yl]-2-(tetrahydro-2H-pyran-4-yloxy)benzonitrile] | < 5 | < 10 | < 100 | – | 0.7 | 1.9 | 50.3 |
| N#Cc1cc(-c2ccnc(Nc3cccc(CN4CCN(CCO)CC4)c3)n2)ccc1OC1CCOCC1 [compound 625, 5-{2-[(3-{[4-(2-Hydroxyethyl)piperazin-1-yl]methyl}phenyl)amino]pyrimidin-4-yl}-2-(tetrahydro-2H-pyran-4-yloxy)benzonitrile] | < 5 | < 10 | < 100 | – | 2 | 0.4 | 16.9 |
| N#Cc1cc(-c2ccnc(Nc3ccc(F)c(OCCN4CCNCC4)c3)n2)ccc1OC1CCOCC1 [compound 626, 5-[2-({4-Fluoro-3-[2-(piperazin-1-yl)ethoxy]phenyl}amino)pyrimidin-4-yl]-2-(tetrahydro-2H-pyran-4-yloxy)benzonitrile] | < 5 | < 10 | < 100 | – | – | – | – |
| CN(C)C(=O)Nc1cccc(Nc2nccc(-c3ccc(OC4CCOCC4)c(C#N)c3)n2)c1 [compound 631, 3-[3-({4-[3-Cyano-4-(tetrahydro-2H-pyran-4-yloxy)phenyl]pyrimidin-2-yl}amino)phenyl]-1,1-dimethylurea] | < 5 | < 10 | < 100 | – | 0.8 | 1.3 | 31.9 |
| N#Cc1cc(-c2ccnc(Nc3ccc(F)c(OCCN)c3)n2)ccc1OC1CCOCC1 [compound 640, 5-(2-{[3-(2-Aminoethoxy)-4-fluorophenyl]amino}pyrimidin-4-yl)-2-(tetrahydro-2H-pyran-4-yloxy)benzonitrile] | < 5 | < 10 | 100 to 250 | – | – | – | – |
| CNS(=O)(=O)Cc1cccc(Nc2nccc(-c3ccc(OC4CCOCC4)c(C#N)c3)n2)c1 [compound 648, 1-[3-({4-[3-Cyano-4-(tetrahydro-2H-pyran-4-yloxy)phenyl]pyrimidin-2-yl}amino)phenyl]-N-methylmethane-sulfonamide] | < 5 | < 10 | 100 to 250 | – | 3.9 | 0.5 | 179 |
| N#Cc1cc(-c2ccnc(Nc3cccc(NCCN4CCOCC4)c3)n2)ccc1OC1CCOCC1 [compound 657] | < 5 | < 10 | < 100 | – | 1.3 | 1.3 | 97.6 |
